{"source": "patent US8952162B2", "about": "“Triazolopyridines as phosphodiesterase inhibitors for treatment of dermal diseases” (Leo Pharma A/S, priority 2008, dated 2015)"}
{"target": "Human recombinant PDE4 (Genbank accession no NM—006203) (Homo sapiens, UniProt Q08499)", "sequence (Q08499 1-673 isoform Q08499-2)": "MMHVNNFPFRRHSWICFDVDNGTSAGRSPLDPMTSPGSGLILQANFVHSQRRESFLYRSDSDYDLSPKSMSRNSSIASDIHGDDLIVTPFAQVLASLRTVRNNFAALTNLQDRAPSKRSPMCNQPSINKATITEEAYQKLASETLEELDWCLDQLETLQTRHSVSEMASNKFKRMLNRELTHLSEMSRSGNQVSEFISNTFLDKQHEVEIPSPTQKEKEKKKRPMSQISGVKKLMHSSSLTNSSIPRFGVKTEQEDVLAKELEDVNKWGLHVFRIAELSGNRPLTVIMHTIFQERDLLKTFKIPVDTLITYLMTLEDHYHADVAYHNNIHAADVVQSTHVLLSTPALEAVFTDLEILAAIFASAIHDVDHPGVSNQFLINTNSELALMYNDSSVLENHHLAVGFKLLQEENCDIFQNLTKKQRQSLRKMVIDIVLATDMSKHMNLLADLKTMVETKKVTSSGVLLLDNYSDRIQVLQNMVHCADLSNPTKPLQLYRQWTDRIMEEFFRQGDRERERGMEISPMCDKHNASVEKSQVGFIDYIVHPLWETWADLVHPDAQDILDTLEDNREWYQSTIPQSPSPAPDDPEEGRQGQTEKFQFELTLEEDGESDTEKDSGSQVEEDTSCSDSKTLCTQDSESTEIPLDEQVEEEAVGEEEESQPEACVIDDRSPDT", "assay": "PDE4 assay (SPA, cAMP cleavage)", "assay_type": "biochemical", "conditions": "Example 52; human recombinant PDE4, 1 hour incubation, cAMP 1×10^-5M, test compound up to 10 μM; read-out: PDE4 IC50 range", "method": "(§1) At the end of the incubation, the cleavage of the substrate was evaluated by the binding of the AMP product to SPA beads, which generate chemoluminescence when bound to the radioactive tracer. The AMP product inhibited the binding of the radioactive tracer to the beads, and the luminescent signal was competed.", "units": {"IC50": "nM"}}
{"smiles": "COc1ccc(-c2ccc(OC)c3nc(C4CC4)nn23)cc1", "note": "[Compound 103, 2-Cyclopropyl-8-methoxy-5-(4-methoxy-phenyl)-[1,2,4]triazolo[1,5-a]pyridine]", "IC50": "< 500"}
{"smiles": "COc1ccc(-c2ccc(C(F)(F)F)cc2)n2nc(C3CC3)nc12", "note": "[Compound 104, 2-Cyclopropyl-8-methoxy-5-(4-trifluoromethyl-phenyl)-[1,2,4]triazolo[1,5-a]pyridine]", "IC50": "500 to 1000"}
{"smiles": "COc1ccc(-c2ccc(OC)c3nc(C4CC4)nn23)cc1OC", "note": "[Compound 105, 2-Cyclopropyl-5-(3,4-dimethoxy-phenyl)-8-methoxy-[1,2,4]triazolo[1,5-a]pyridine]", "IC50": "< 500"}
{"smiles": "COc1ccc(-c2cccs2)n2nc(C3CC3)nc12", "note": "[Compound 106, 2-Cyclopropyl-8-methoxy-5-thiophen-2-yl-[1,2,4]triazolo[1,5-a]pyridine]", "IC50": "< 500"}
{"smiles": "COc1ccc(-c2cccc(NC(C)=O)c2)n2nc(C3CC3)nc12", "note": "[Compound 107, N-[3-(2-Cyclopropyl-8-methoxy-[1,2,4]triazolo[1,5-a]pyridin-5-yl)-phenyl]-acetamide]", "IC50": "> 1000"}
{"smiles": "COc1ccc(-c2cccc(OC(F)(F)F)c2)n2nc(C3CC3)nc12", "note": "[Compound 108, 2-Cyclopropyl-8-methoxy-5-(3-trifluoromethoxy-phenyl)-[1,2,4]triazolo[1,5-a]pyridine]", "IC50": "< 500"}
{"smiles": "COc1cccc(-c2ccc(OC)c3nc(C4CC4)nn23)c1", "note": "[Compound 109, 2-Cyclopropyl-8-methoxy-5-(3-methoxy-phenyl)-[1,2,4]triazolo[1,5-a]pyridine]", "IC50": "< 500"}
{"smiles": "COc1ccc(-c2ccc(C(C)=O)s2)n2nc(C3CC3)nc12", "note": "[Compound 110, 1-[5-(2-Cyclopropyl-8-methoxy-[1,2,4]triazolo[1,5-a]pyridin-5-yl)-thiophen-2-yl]-ethanone]", "IC50": "< 500"}
{"smiles": "COc1ccc(-c2cncnc2)n2nc(C3CC3)nc12", "note": "[Compound 111, 2-Cyclopropyl-8-methoxy-5-pyrimidin-5-yl-[1,2,4]triazolo[1,5-a]pyridine]", "IC50": "500 to 1000"}
{"smiles": "COc1ccc(-c2cccc(S(C)(=O)=O)c2)n2nc(C3CC3)nc12", "note": "[Compound 112, 2-Cyclopropyl-5-(3-methanesulfonyl-phenyl)-8-methoxy-[1,2,4]triazolo[1,5-a]pyridine]", "IC50": "500 to 1000"}
{"smiles": "COc1ccc(-c2cccc(NS(C)(=O)=O)c2)n2nc(C3CC3)nc12", "note": "[Compound 113, N-[3-(2-Cyclopropyl-8-methoxy-[1,2,4]triazolo[1,5-a]pyridin-5-yl)-phenyl]-methanesulfonamide]", "IC50": "500 to 1000"}
{"smiles": "CNC(=O)c1cccc(-c2ccc(OC)c3nc(C4CC4)nn23)c1", "note": "[Compound 114, 3-(2-Cyclopropyl-8-methoxy-[1,2,4]triazolo[1,5-a]pyridin-5-yl)-N-methyl-benzamide]", "IC50": "> 1000"}
{"smiles": "COc1ccc(-c2ccc(NC(C)=O)cc2)n2nc(C3CC3)nc12", "note": "[Compound 116, N-[4-(2-Cyclopropyl-8-methoxy-[1,2,4]triazolo[1,5-a]pyridin-5-yl)-phenyl]-acetamide]", "IC50": "> 1000"}
{"smiles": "COc1ccc(-c2cccnc2)n2nc(C3CC3)nc12", "note": "[Compound 118, 2-Cyclopropyl-8-methoxy-5-pyridin-3-yl-[1,2,4]triazolo[1,5-a]pyridine]", "IC50": "< 500"}
{"smiles": "COc1ccc(-c2ccc(S(C)(=O)=O)cc2)n2nc(C3CC3)nc12", "note": "[Compound 120, 2-Cyclopropyl-5-(4-methanesulfonyl-phenyl)-8-methoxy-[1,2,4]triazolo[1,5-a]pyridine]", "IC50": "> 1000"}
{"smiles": "COc1ccc(-c2ccccc2F)n2nc(C3CC3)nc12", "note": "[Compound 121, 2-Cyclopropyl-5-(2-fluoro-phenyl)-8-methoxy-[1,2,4]triazolo[1,5-a]pyridine]", "IC50": "500 to 1000"}
{"smiles": "COCCOc1ccc(-c2ccc(OC)c3nc(C4CC4)nn23)cc1", "note": "[Compound 122, 2-Cyclopropyl-8-methoxy-5-[4-(2-methoxy-ethoxy)-phenyl]-[1,2,4]triazolo[1,5-a]pyridine]", "IC50": "> 1000"}
{"smiles": "COc1ccc(-c2ccc(C(N)=O)cc2)n2nc(C3CC3)nc12", "note": "[Compound 123, 4-(2-Cyclopropyl-8-methoxy-[1,2,4]triazolo[1,5-a]pyridin-5-yl)-benzamide]", "IC50": "< 500"}
{"smiles": "CCCCOc1cccc(-c2ccc(OC)c3nc(C4CC4)nn23)c1", "note": "[Compound 124, 5-(3-Butoxy-phenyl)-2-cyclopropyl-8-methoxy-[1,2,4]triazolo[1,5-a]pyridine]", "IC50": "< 500"}
{"smiles": "COc1ccc(-c2cccc(F)c2)n2nc(C3CC3)nc12", "note": "[Compound 125, 2-Cyclopropyl-5-(3-fluoro-phenyl)-8-methoxy-[1,2,4]triazolo[1,5-a]pyridine]", "IC50": "< 500"}
{"smiles": "COc1ccc(-c2ccncc2)n2nc(C3CC3)nc12", "note": "[Compound 126, 2-Cyclopropyl-8-methoxy-5-pyridin-4-yl-[1,2,4]triazolo[1,5-a]pyridine]", "IC50": "< 500"}
{"smiles": "COc1ccc(-c2ccc(Cl)cc2Cl)n2nc(C3CC3)nc12", "note": "[Compound 127, 2-Cyclopropyl-5-(2,4-dichloro-phenyl)-8-methoxy-[1,2,4]triazolo[1,5-a]pyridine]", "IC50": "500 to 1000"}
{"smiles": "COc1ccc(-c2ccc(S(=O)(=O)N3CCOCC3)cc2)n2nc(C3CC3)nc12", "note": "[Compound 128, 2-Cyclopropyl-8-methoxy-5-[4-(morpholine-4-sulfonyl)-phenyl]-[1,2,4]triazolo[1,5-a]pyridine]", "IC50": "> 1000"}
{"smiles": "COc1ccc(-c2ccc(CNC(C)=O)cc2)n2nc(C3CC3)nc12", "note": "[Compound 129, N-[4-(2-Cyclopropyl-8-methoxy-[1,2,4]triazolo[1,5-a]pyridin-5-yl)-benzyl]-acetamide]", "IC50": "> 1000"}
{"smiles": "COc1ccc(-c2ccc(CNS(C)(=O)=O)cc2)n2nc(C3CC3)nc12", "note": "[Compound 130, N-[4-(2-Cyclopropyl-8-methoxy-[1,2,4]triazolo[1,5-a]pyridin-5-yl)-benzyl]-methanesulfonamide]", "IC50": "> 1000"}
{"smiles": "COc1ccc(-c2ccc(F)cc2)n2nc(C3CC3)nc12", "note": "[Compound 131, 2-Cyclopropyl-5-(4-fluoro-phenyl)-8-methoxy-[1,2,4]triazolo[1,5-a]pyridine]", "IC50": "< 500"}
{"smiles": "COc1ccc(-c2ccc(C#N)cc2)n2nc(C3CC3)nc12", "note": "[Compound 132, 4-(2-Cyclopropyl-8-methoxy-[1,2,4]triazolo[1,5-a]pyridin-5-yl)-benzonitrile]", "IC50": "< 500"}
{"smiles": "COC(=O)CCc1ccc(-c2ccc(OC)c3nc(C4CC4)nn23)cc1", "note": "[Compound 133, 3-[4-(2-Cyclopropyl-8-methoxy-[1,2,4]triazolo[1,5-a]pyridin-5-yl)-phenyl]-propionic acid methyl ester]", "IC50": "500 to 1000"}
{"smiles": "COc1ccc(-c2ccc(S(=O)(=O)NCCO)cc2)n2nc(C3CC3)nc12", "note": "[Compound 134, 4-(2-Cyclopropyl-8-methoxy-[1,2,4]triazolo[1,5-a]pyridin-5-yl)-N-(2-hydroxy-ethyl)-benzenesulfonamide]", "IC50": "> 1000"}
{"smiles": "COc1ccc(N2CCCCC2)n2nc(C3CC3)nc12", "note": "[Compound 143, 2-Cyclopropyl-8-methoxy-5-piperidin-1-yl-[1,2,4]triazolo[1,5-a]pyridine]", "IC50": "< 500"}
{"target": "Human recombinant PDE4 (Genbank accession no NM—006203) (Homo sapiens, UniProt Q08499)", "assay": "PDE4 assay (SPA, cAMP cleavage)", "assay_type": "biochemical", "conditions": "Example 53; PDE4 assay as in example 52; read-out: PDE4 IC50 range", "method": "as §1", "units": {"IC50": "nM"}}
{"smiles": "CC(=O)c1cccc(-c2ccc(O)c3nc(C4CC4)nn23)c1", "note": "[Compound 144, 1-[3-(2-Cyclopropyl-8-hydroxy-[1,2,4]triazolo[1,5-a]pyridin-5-yl)-phenyl]-ethanone]", "IC50": "< 500"}
{"smiles": "COc1ccc(-c2cc(C#N)ccn2)n2nc(C3CC3)nc12", "note": "[Compound 145, 2-(2-Cyclopropyl-8-methoxy-[1,2,4]triazolo[1,5-a]pyridin-5-yl)-isonicotinonitrile]", "IC50": "500 to 1000"}
{"smiles": "CCOC(=O)C1(c2nc3c(OC)ccc(-c4ccc(C#N)cc4)n3n2)CC1", "note": "[Compound 146, 1-[5-(4-Cyano-phenyl)-8-methoxy-[1,2,4]triazolo[1,5-a]pyridin-2-yl]-cyclopropanecarboxylic acid ethyl ester]", "IC50": "500 to 1000"}
{"smiles": "COc1ccc(-c2ccc(C#N)cc2)n2nc(C3(C(=O)O)CC3)nc12", "note": "[Compound 147, 1-[5-(4-Cyano-phenyl)-8-methoxy-[1,2,4]triazolo[1,5-a]pyridin-2-yl]-cyclopropanecarboxylic acid]", "IC50": "> 1000"}
{"smiles": "COc1ccc(-c2ccc(C#N)cc2)n2nc(C3(C(N)=O)CC3)nc12", "note": "[Compound 148, 1-[5-(4-Cyano-phenyl)-8-methoxy-[1,2,4]triazolo[1,5-a]pyridin-2-yl]-cyclopropanecarboxylic acid amide]", "IC50": "< 500"}
{"smiles": "COc1ccc(-c2cncc(C#N)c2)n2nc(C3(C(=O)NC(C)C)CC3)nc12", "note": "[Compound 149, 1-[5-(5-Cyano-pyridin-3-yl)-8-methoxy-[1,2,4]triazolo[1,5-a]pyridin-2-yl]-cyclopropanecarboxylic acid isopropylamide]", "IC50": "< 500"}
{"smiles": "COc1ccc(-c2cccc(C#N)c2)n2nc(C3(COC(=O)N4CCCC4)CC3)nc12", "note": "[Compound 151, Pyrrolidine-1-carboxylic acid 1-[5-(3-cyano-phenyl)-8-methoxy-[1,2,4]triazolo[1,5-a]pyridin-2-yl]-cyclopropylmethyl ester]", "IC50": "< 500"}
{"smiles": "COc1ccc(-c2cccc(C#N)c2)n2nc(C3(COC(=O)NC(C)C)CC3)nc12", "note": "[Compound 152, Isopropyl-carbamic acid 1-[5-(3-cyano-phenyl)-8-methoxy-[1,2,4]triazolo[1,5-a]pyridin-2-yl]-cyclopropylmethyl ester]", "IC50": "< 500"}
{"smiles": "COc1ccc(-c2cccc(C#N)c2)n2nc(C3(COCc4ccccc4)CC3)nc12", "note": "[Compound 153, 3-[2-(1-Benzyloxymethyl-cyclopropyl)-8-methoxy-[1,2,4]-triazolo[1,5-a]pyridin-5-yl]-benzonitrile]", "IC50": "< 500"}
{"smiles": "COc1ccc(-c2cccc(C#N)c2)n2nc(C3(CNC(=O)C(C)C)CC3)nc12", "note": "[Compound 154, N-{1-[5-(3-Cyano-phenyl)-8-methoxy-[1,2,4]triazolo[1,5-a]pyridin-2-yl]-cyclopropylmethyl}-isobutyramide]", "IC50": "< 500"}
